Test results: patent publication US9119396B2, “Method for promoting plant growth” (SUMITOMO CHEMICAL COMPANY, LIMITED, priority 2011, dated 2015)

Experiments:
Assay type in all cases: in vivo
[1] = test system: Benthamiana tobacco (Nicotiana benthamiana); assay: Test Example 9: reduction of low-temperature stress in hydroponics of tobacco; settings: tobacco seedlings, medium with 0.1 ppm compound for 7 days; low-temperature stress 1.5±1.0° C. 7 days, then 3 days at 22° C.
Protocol: Evaluation Test for Reduction of Low-Temperature Stress in Hydroponics of Tobacco (Nicotiana benthamiana) Benthamiana tobacco (Nicotiana benthamiana) DMSO solutions containing each of the present compounds 1, 4 and 5 at a concentration of 100 ppm were prepared. […] These media were used in the treated-group. In a non-treated group, a medium obtained by adding a 1/1,000 volume of DMSO to a Murashige-and-Skoog medium at ½ concentration was used. The seeds of tobacco (Nicotiana benthamiana) were sown on 5 μL of the medium, and incubated at 22° C. overnight. Thereto was added 45 μL of a medium containing each present compound at a concentration of 0.1 ppm, and cultivated for 7 days under the conditions of an illuminance of 4,000 lux, a temperature of 22° C. and a day length of 16 hours, thereby treating the seedlings of tobacco (Nicotiana benthamiana) with the test compound. In the non-treated group, 45 μL of a medium obtained by adding a 1/1,000 volume of DMSO to a Murashige-and-Skoog medium at ½ concentration was added, and treated in the same manner as above. The seedlings of tobacco (Nicotiana benthamiana) treated with the present compounds were cultivated for 7 days under the conditions of an illuminance of 2,000 lux, a temperature of 1.5±1.0° C., and a day length of 16 hours, thereby subjecting to low-temperature stress treatment. The plants of tobacco (Nicotiana benthamiana) subjected to low-temperature stress treatment was cultivated for 3 days under the conditions of an illuminance of 4,000 lux, a temperature of 22° C., and a day length of 16 hours, and then the green leaf area of the plants was visually evaluated. Completely dead plant was scored as 0, the plant without low-temperature stress treatment was scored as 5, the green area was rated on a 6-point scale in ⅕ increments, and the score of not less than 1 was regarded as effective in reducing the stress. As a result of visual evaluation, the green leaf area of plants in the treated group, wherein the plants were treated with the present compound 1, 4 or 5 was much larger than that in the non-treated group.

[2] = test system: Rice (cultivar: Nipponbare); assay: Test Example 4: reduction of low-temperature stress by immersion treatment of rice; settings: rice seedlings, immersion at 1 ppm for 2 days; low-temperature stress 4° C. 5 days, then 4 days at 25° C.
Protocol: Evaluation Test for Reduction of Low-Temperature Stress by Immersion Treatment of Rice Rice (cultivar: Nipponbare) A necessary amount of rice seeds was immersed in an aqueous solution of 1,000 ppm of Benlate, and incubated at 30° C. overnight under dark conditions. The aqueous solution of Benlate was replaced with distilled water, and the seeds were further incubated at 30° C. overnight under dark conditions to stimulate the germination of the seeds. A filter paper was placed on the holes of a plug tray having 406 holes, and the rice seeds obtained after the stimulation of germination were sown on the filter paper. To the rice seeds was added a kimura B solution for hydroponics (see Plant Science 119: 39-47 (1996)) at ½ concentration, and cultivated for 5 days in an artificial weather control room under the following conditions: • temperature: 28° C. in daytime/23° C. in night, humidity: 70%, illuminance: 8,500 lux, and day length: 12 hours. <Compound Treatment> A DMSO solution of 1,000 ppm of the present compound 1 was prepared, and diluted with a kimura B solution for hydroponics at ½ concentration. The solution for hydroponics containing the compound was dispensed into the wells of a 24-well plate at 2 ml per well. […] In the treated group, the experiment was performed in duplication and the average value of the green area per individual was calculated. […]

[3] = test system: Corn (cultivar: Kuromochi); assay: Test Example 3: reduction of low-temperature stress by treatment of corn seeds; settings: corn seed treatment, low-temperature stress 2.5±1° C. 4 days, then 4 days at 27° C.
Protocol: Evaluation Test for Reduction of Low-Temperature Stress by Treatment of Corn Seeds Corn (cultivar: Kuromochi) A blank slurry solution containing 10% (V/V) color coat red (Becker Underwood, Inc.), 10% (V/V) CF-Clear (Becker Underwood, Inc.) and 1.66% Maxim 4FS (Syngenta) was prepared. A slurry solution was prepared by dissolving the present compound 1 in the blank slurry solution such that 0.5 g, 5 g or 50 g of the compound is applied to each 100 kg of corn seeds. In a 50-ml centrifuge tube (manufactured by BD Japan), 0.35 ml of the slurry solution was placed for each 14.4 g of corn seeds and stirred until the solution was dried, thereby coating the seeds. In addition, seeds were coated with the blank slurry solution and used as seeds for a non-treated group. One of the treated corn seeds was sown in culture soil (AISAI) in each pot (55 mm in diameter×58 mm in height) and cultivated for 10 days under the conditions of a temperature of 27° C., an illuminance of 5,000 lux, and a day length of 16 hours. The grown seedlings were used for the test. The pots at 10 days after the sowing were placed into an artificial weather control room (VHT-2-15P-NC2-S, manufactured by Nippon Medical & Chemical Instruments Co., Ltd) and cultivated for 4 days under the following conditions: • temperature: 2.5±1° C., day length: 16 hours, and illuminance: 5,000 lux. <Evaluation Method> After the low-temperature stress treatment, the plants were cultivated for 4 days under the conditions of a temperature of 27° C., an illuminance of 5,000 lux, and a day length of 16 hours. Then, the fresh weight of the overground part of the plants was measured. The experiment was performed in five replications for each treatment condition and the average weight per individual was calculated. As a result, the fresh weight of the overground part of plants in the treated group of applying 0.5 g, 5 g or 50 g of the present compound 1 to each 100 kg of seeds was much heavier than that in the non-treated group.

In the case of COC(=O)c1cc2cc(C(F)(F)F)ccc2s1 [compound 1], the “green leaf area of plants (visual evaluation) vs non-treated group” value [1] is reported as “much larger”, the “green area of the overground part of the plant vs non-treated group” value [2] is reported as “much larger” and the “fresh weight of the overground part of plants vs non-treated group” value (“fresh weight … vs non-treated group” below) ([3]; 0.5 g per 100 kg of seeds) is reported as “much heavier”. The “fresh weight … vs non-treated group” value ([3]; 5 g per 100 kg of seeds) was “much heavier” and the “fresh weight … vs non-treated group” value ([3]; 50 g per 100 kg of seeds) was “much heavier”.
